# Reference: PubChem BioAssay (NCI)
#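 Compound exposure: 48 hours, 5 concentrations, 96-well plates. GI50 is the concentration that inhibits growth by half. The concentration for full growth arrest is given as TGI.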
# What was measured:
# Test in all cases: NCI tumour cell line growth inhibition, 48 h
# [1] = system: UACC-62 melanoma
# [2] = system: SF-539 CNS
# [3] = system: T-47D breast
# [4] = system: K-562 leukemia
# [5] = system: SK-MEL-2 melanoma
# [6] = system: HT29 colon
# [7] = system: 786-0 renal
# [8] = system: CAKI-1 renal
# [9] = system: SF-295 CNS
# [10] = system: SW-620 colon
# [11] = system: IGROV1 ovarian
# [12] = system: MDA-MB-435
# [13] = system: NCI/ADR-RES ovarian
# [14] = system: SK-MEL-5 melanoma
# [15] = system: PC-3 prostate
# [16] = system: MOLT-4 leukemia
# [17] = system: EKVX NSCLC
# [18] = system: HCT-116 colon
# [19] = system: NCI-H460 lung
# [20] = system: A498 renal
# [21] = system: M14 melanoma
# [22] = system: UACC-257 melanoma
# [23] = system: OVCAR-8 ovarian
# [24] = system: HL-60(TB) leukemia
# [25] = system: HCC-2998 colon
# [26] = system: HOP-62 NSCLC
# [27] = system: MALME-3M melanoma
# [28] = system: BT-549 breast
# [29] = system: SN12C renal
# [30] = system: OVCAR-3 ovarian
# [31] = system: SF-268 CNS
# [32] = system: SNB-75 CNS
# [33] = system: HOP-92 NSCLC
# [34] = system: COLO 205 colon
# [35] = system: NCI-H23 lung
# [36] = system: SK-OV-3 ovarian
# [37] = system: KM12 colon
# [38] = system: A549 NSCLC
# [39] = system: HS 578T breast
# [40] = system: DU-145 prostate
# [41] = system: NCI-H226 lung
# [42] = system: SK-MEL-28 melanoma
# [43] = system: MDA-MB-231 breast
# [44] = system: RPMI-8226 leukemia
# [45] = system: LOX IMVI melanoma
# [46] = system: SNB-19 CNS
# [47] = system: CCRF-CEM leukemia
# [48] = system: SR leukemia
# [49] = system: HCT-15 colon
# [50] = system: TK-10 renal
# [51] = system: UO-31 renal
# [52] = system: OVCAR-4 ovarian
# [53] = system: OVCAR-5 ovarian
# [54] = system: MCF7 breast
# [55] = system: NCI-H522 lung
# [56] = system: U251 CNS
# [57] = system: ACHN renal
# [58] = system: RXF 393 renal
structure (smiles),measurement,setting,value
CC(=O)c1ccc2c(c1)N(CCCN(C)C)c1ccccc1S2,GI50,[1],14.9 µM
same,TGI,[1],29.1 µM
same,GI50,[2],13.7 µM
same,TGI,[2],28.2 µM
same,GI50,[3],16.6 µM
same,TGI,[3],39.6 µM
same,GI50,[4],15.9 µM
same,TGI,[4],83.7 µM
same,GI50,[5],18.1 µM
same,TGI,[5],35.7 µM
same,GI50,[6],11.2 µM
same,TGI,[6],28.4 µM
same,GI50,[7],12 µM
same,TGI,[7],25 µM
same,GI50,[8],12.6 µM
same,TGI,[8],26.4 µM
same,GI50,[9],11.9 µM
same,TGI,[9],25.5 µM
same,GI50,[10],16.5 µM
same,TGI,[10],31.8 µM
same,GI50,[11],18.8 µM
same,TGI,[11],44 µM
same,GI50,[12],11.8 µM
same,TGI,[12],25.7 µM
same,GI50,[13],13.6 µM
same,TGI,[13],28.3 µM
same,GI50,[14],13.2 µM
same,TGI,[14],26.2 µM
same,GI50,[15],14.2 µM
same,TGI,[15],30.2 µM
same,GI50,[16],16.8 µM
same,TGI,[16],41.2 µM
same,GI50,[17],13.1 µM
same,TGI,[17],30.9 µM
same,GI50,[18],11.3 µM
same,TGI,[18],23.7 µM
same,GI50,[19],18 µM
same,TGI,[19],33.8 µM
same,GI50,[20],11.4 µM
same,TGI,[20],25.1 µM
same,GI50,[21],14.9 µM
same,TGI,[21],30 µM
same,GI50,[22],18.7 µM
same,TGI,[22],37.8 µM
same,GI50,[23],17.7 µM
same,TGI,[23],37.4 µM
same,GI50,[24],14 µM
same,TGI,[24],41 µM
same,GI50,[25],14.4 µM
same,TGI,[25],27.6 µM
same,GI50,[26],15.6 µM
same,TGI,[26],31.6 µM
same,GI50,[27],17.9 µM
same,TGI,[27],38.3 µM
same,GI50,[28],12.7 µM
same,TGI,[28],25.8 µM
same,GI50,[29],14.5 µM
same,TGI,[29],30.8 µM
same,GI50,[30],16.5 µM
same,TGI,[30],31.4 µM
same,GI50,[31],13.5 µM
same,TGI,[31],29.6 µM
same,GI50,[32],1990 nM
same,TGI,[32],16.4 µM
same,GI50,[33],11.3 µM
same,TGI,[33],53.7 µM
same,GI50,[34],3.32 µM
same,TGI,[34],11.7 µM
same,GI50,[35],17.1 µM
same,TGI,[35],44.4 µM
same,GI50,[36],13.1 µM
same,TGI,[36],26.3 µM
same,GI50,[37],15.7 µM
same,TGI,[37],29.6 µM
same,GI50,[38],17.7 µM
same,TGI,[38],34.2 µM
same,GI50,[39],11.6 µM
same,TGI,[39],27.8 µM
same,GI50,[40],17.1 µM
same,TGI,[40],34.3 µM
same,GI50,[41],21.3 µM
same,TGI,[41],55.1 µM
same,GI50,[42],16.2 µM
same,TGI,[42],32 µM
same,GI50,[43],11.1 µM
same,TGI,[43],24.8 µM
same,GI50,[44],18 µM
same,TGI,[44],43.3 µM
same,GI50,[45],12.4 µM
same,TGI,[45],25.4 µM
same,GI50,[46],18.6 µM
same,TGI,[46],43.2 µM
same,GI50,[47],18.5 µM
same,TGI,[47],47.3 µM
same,GI50,[48],18.7 µM
same,TGI,[48],49.5 µM
same,GI50,[49],16 µM
same,TGI,[49],31.2 µM
same,GI50,[50],14.7 µM
same,TGI,[50],29.5 µM
same,GI50,[51],13.5 µM
same,TGI,[51],29.1 µM
same,GI50,[52],18.5 µM
same,TGI,[52],65.2 µM
same,GI50,[53],13.9 µM
same,TGI,[53],27.9 µM
same,GI50,[54],16.6 µM
same,TGI,[54],34.5 µM
same,GI50,[55],16.2 µM
same,TGI,[55],34.1 µM
same,GI50,[56],15.1 µM
same,TGI,[56],32.1 µM
same,GI50,[57],15.5 µM
same,TGI,[57],30.6 µM
same,GI50,[58],8.86 µM
same,TGI,[58],22 µM
